{
  "source": "paper PMC12300041",
  "about": "“Tricyclic Isatin Derivatives as Anti-Inflammatory Compounds with High Kinase Binding Affinity” (Molecules, 2025)",
  "assay_in_all_cases": "KINOMEscan",
  "key": {"HIPK1": {"target": "T1, HIPK1 (Homo sapiens, UniProt Q86Z02)", "T1 construct": "purchased Eurofins Pharma Discovery (KINOMEscan)", "type": "binding", "details": "for Kd: HIPK1, N.B.: no binding at concentrations up to 30 µM", "description": "(§1) Kinase profiling was performed by KINOMEscan (Eurofins Pharma Discovery, San Diego, CA, USA), using a panel of 423 protein kinases, as described previously. Compounds were submitted for dissociation constant (Kd) determination toward several target kinases using KINOMEscan. […] Binding reactions were performed at room temperature for 1 h, and the fraction of kinase not bound to the test compound was determined by capture with an immobilized affinity ligand and quantified by quantitative polymerase chain reaction. The primary screening at fixed concentrations of the compound was performed in duplicate. For dissociation constant Kd determination, a 12-point half-log dilution series (a maximum concentration of 33 μM) was used."}, "NEK10": {"target": "T2, NEK10 (Homo sapiens, UniProt Q6ZWH5)", "T2 construct": "purchased Eurofins Pharma Discovery (KINOMEscan)", "T2 sequence (Q6ZWH5 1-1172)": "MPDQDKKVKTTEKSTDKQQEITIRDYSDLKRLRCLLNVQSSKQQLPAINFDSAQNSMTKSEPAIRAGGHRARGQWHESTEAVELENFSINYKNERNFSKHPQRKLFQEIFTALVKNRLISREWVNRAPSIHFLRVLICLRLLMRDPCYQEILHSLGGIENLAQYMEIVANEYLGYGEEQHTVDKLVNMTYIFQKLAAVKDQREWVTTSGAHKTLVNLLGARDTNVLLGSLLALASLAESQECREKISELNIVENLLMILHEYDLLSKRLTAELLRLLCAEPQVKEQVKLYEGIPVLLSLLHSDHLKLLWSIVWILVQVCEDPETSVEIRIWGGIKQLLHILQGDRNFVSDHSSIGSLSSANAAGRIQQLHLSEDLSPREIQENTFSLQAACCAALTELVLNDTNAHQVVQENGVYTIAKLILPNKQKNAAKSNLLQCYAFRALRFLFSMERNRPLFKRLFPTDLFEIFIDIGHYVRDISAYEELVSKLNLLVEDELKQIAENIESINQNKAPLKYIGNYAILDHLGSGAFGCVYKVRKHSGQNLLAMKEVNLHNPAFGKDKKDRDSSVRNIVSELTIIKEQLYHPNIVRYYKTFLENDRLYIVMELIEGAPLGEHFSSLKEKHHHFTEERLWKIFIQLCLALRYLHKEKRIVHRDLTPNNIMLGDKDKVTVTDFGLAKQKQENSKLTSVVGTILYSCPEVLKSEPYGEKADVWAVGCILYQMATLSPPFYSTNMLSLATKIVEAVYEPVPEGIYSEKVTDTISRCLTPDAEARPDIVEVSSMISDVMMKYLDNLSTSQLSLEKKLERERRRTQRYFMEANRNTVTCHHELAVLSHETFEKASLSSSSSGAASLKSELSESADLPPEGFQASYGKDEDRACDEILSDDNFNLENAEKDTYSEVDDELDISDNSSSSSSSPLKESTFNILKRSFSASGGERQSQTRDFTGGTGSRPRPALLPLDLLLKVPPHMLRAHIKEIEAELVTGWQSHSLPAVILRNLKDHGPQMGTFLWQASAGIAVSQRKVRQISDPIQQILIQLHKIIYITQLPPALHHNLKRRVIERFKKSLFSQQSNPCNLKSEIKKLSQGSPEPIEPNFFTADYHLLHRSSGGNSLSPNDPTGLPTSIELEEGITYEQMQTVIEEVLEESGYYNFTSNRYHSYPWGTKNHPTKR", "type": "binding", "details": "for Kd: NEK10, N.B.: no binding at concentrations up to 30 µM", "description": "as §1"}, "DAPK1": {"target": "T3, DAPK1 (Homo sapiens, UniProt P53355)", "T3 construct": "purchased Eurofins Pharma Discovery (KINOMEscan)", "type": "binding", "details": "for Kd: DAPK1, N.B.: no binding at concentrations up to 30 µM", "description": "as §1"}, "DYRK1A": {"target": "T4, DYRK1A (Homo sapiens, UniProt Q13627)", "T4 construct": "purchased Eurofins Pharma Discovery (KINOMEscan)", "type": "binding", "details": "for Kd: DYRK1A, N.B.: no binding at concentrations up to 30 µM", "description": "as §1"}, "PDGFRA": {"target": "T5, PDGFRA (Homo sapiens, UniProt P16234)", "T5 construct": "purchased Eurofins DiscoverX KINOMEscan", "type": "binding", "description": "as §1"}, "FLT3": {"target": "T6, FLT3 (Homo sapiens, UniProt P36888)", "T6 construct": "purchased Eurofins DiscoverX KINOMEscan", "T6 sequence (P36888 27-993)": "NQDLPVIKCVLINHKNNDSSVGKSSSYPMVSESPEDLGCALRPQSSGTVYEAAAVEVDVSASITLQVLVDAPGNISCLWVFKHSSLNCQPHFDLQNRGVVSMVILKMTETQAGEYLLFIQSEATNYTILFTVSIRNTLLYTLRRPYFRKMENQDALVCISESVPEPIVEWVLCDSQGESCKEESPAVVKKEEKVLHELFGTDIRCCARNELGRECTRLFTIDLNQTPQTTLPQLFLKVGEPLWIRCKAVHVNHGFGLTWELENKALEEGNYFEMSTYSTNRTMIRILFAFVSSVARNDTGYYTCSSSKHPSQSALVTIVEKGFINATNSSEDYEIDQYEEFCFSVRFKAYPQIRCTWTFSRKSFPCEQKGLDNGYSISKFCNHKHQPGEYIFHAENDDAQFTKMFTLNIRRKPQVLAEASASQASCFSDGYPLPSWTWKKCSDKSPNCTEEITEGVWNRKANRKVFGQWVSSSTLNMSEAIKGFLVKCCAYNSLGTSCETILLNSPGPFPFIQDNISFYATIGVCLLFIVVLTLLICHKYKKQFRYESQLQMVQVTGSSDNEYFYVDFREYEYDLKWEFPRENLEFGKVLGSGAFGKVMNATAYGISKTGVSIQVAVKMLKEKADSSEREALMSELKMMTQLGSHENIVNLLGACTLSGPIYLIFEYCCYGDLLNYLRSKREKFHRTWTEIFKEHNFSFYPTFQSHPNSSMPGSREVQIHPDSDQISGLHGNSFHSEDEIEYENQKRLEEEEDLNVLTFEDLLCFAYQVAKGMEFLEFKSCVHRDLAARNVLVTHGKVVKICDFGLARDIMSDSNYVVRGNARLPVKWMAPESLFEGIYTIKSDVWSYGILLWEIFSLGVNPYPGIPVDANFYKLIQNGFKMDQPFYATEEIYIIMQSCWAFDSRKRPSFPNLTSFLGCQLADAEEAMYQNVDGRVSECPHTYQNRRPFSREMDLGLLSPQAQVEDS", "type": "binding", "description": "as §1"}, "QSK": {"target": "T7, QSK (Homo sapiens, UniProt Q9Y2K2)", "T7 construct": "purchased Eurofins DiscoverX KINOMEscan", "type": "binding", "description": "as §1"}, "ERN1": {"target": "T8, ERN1 (Homo sapiens, UniProt O75460)", "T8 construct": "purchased Eurofins DiscoverX KINOMEscan", "type": "binding", "description": "as §1"}, "MEK3": {"target": "T9, MEK3 (Homo sapiens, UniProt P46734)", "T9 construct": "purchased Eurofins DiscoverX KINOMEscan", "type": "binding", "description": "as §1"}, "GAK": {"target": "T10, GAK (Homo sapiens, UniProt O14976)", "T10 construct": "purchased Eurofins DiscoverX KINOMEscan", "type": "binding", "description": "as §1"}, "SNRK": {"target": "T11, SNRK (Homo sapiens, UniProt Q9NRH2)", "T11 construct": "purchased Eurofins DiscoverX KINOMEscan", "type": "binding", "description": "as §1"}, "RET": {"target": "T12, RET (Homo sapiens, UniProt P07949)", "T12 construct": "purchased Eurofins DiscoverX KINOMEscan", "T12 sequence (P07949 29-1114)": "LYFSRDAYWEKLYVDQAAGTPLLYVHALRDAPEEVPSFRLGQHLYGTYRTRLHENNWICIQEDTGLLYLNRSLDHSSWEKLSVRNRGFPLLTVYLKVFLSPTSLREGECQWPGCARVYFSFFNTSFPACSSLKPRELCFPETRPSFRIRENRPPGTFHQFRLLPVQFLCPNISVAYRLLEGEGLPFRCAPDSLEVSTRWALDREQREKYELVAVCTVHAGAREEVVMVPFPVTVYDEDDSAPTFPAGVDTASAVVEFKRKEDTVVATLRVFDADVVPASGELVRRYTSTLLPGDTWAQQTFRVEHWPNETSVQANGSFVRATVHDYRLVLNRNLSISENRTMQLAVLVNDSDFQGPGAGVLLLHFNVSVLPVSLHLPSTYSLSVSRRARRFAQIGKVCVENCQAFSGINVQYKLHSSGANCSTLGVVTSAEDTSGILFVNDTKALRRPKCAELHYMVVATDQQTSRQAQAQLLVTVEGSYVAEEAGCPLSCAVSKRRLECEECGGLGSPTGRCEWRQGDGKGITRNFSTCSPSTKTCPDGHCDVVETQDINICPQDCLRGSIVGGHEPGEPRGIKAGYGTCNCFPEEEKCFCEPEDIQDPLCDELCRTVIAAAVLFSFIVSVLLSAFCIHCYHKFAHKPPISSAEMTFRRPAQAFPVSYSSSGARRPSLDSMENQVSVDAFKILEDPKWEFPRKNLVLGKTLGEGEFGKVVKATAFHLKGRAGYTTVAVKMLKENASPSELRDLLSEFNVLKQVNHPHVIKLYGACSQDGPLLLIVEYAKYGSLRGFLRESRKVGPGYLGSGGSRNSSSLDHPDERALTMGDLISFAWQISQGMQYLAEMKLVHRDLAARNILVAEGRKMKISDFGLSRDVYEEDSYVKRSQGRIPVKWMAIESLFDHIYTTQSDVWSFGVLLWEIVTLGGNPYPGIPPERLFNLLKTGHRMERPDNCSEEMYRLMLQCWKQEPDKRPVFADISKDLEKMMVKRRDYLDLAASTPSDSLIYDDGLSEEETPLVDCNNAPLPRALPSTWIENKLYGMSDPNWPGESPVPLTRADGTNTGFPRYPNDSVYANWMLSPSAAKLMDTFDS", "type": "binding", "description": "as §1"}, "ABL1-non-P": {"target": "T13, ABL1-non-P (Homo sapiens, UniProt P00519)", "T13 construct": "purchased Eurofins DiscoverX KINOMEscan", "type": "binding", "description": "as §1"}, "PIK3CA (C420R)": {"target": "T14, PIK3CA (C420R) (Homo sapiens, UniProt P42336, C420R)", "T14 construct": "purchased Eurofins DiscoverX KINOMEscan", "T14 sequence (P42336 whole entry C420R)": "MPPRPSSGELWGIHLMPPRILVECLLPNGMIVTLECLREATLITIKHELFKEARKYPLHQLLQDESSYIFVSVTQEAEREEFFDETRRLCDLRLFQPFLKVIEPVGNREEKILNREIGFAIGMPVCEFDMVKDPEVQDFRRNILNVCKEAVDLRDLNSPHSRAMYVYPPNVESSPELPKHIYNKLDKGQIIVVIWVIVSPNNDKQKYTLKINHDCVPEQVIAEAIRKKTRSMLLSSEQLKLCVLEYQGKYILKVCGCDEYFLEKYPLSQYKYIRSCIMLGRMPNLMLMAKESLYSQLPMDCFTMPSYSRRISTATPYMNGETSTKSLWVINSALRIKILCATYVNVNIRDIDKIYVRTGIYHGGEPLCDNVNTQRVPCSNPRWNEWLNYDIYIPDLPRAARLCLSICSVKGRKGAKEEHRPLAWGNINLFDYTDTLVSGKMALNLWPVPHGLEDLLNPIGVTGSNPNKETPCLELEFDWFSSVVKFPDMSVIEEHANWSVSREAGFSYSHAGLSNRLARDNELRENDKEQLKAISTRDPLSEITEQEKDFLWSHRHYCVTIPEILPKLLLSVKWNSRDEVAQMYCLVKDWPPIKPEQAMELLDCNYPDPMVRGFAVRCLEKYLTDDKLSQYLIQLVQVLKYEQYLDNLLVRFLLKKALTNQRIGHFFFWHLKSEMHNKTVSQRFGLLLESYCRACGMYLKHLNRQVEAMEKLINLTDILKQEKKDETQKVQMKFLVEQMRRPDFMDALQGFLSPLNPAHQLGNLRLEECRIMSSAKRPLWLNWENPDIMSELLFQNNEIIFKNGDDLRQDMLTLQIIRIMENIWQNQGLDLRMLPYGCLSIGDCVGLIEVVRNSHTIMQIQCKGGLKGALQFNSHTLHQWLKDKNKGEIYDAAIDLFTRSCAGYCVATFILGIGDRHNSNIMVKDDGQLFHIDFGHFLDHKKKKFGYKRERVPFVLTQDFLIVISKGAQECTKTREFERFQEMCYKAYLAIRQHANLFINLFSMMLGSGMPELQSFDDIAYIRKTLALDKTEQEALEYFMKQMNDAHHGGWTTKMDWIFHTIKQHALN", "type": "binding", "description": "as §1"}, "GSK3B": {"target": "T15, GSK3B (Homo sapiens, UniProt P49841)", "T15 construct": "purchased Eurofins DiscoverX KINOMEscan", "type": "binding", "description": "as §1"}, "IKK-β": {"target": "T16, IKK-β (Homo sapiens, UniProt O14920)", "T16 construct": "purchased Eurofins DiscoverX KINOMEscan", "type": "binding", "description": "as §1"}, "KIT (V559D)": {"target": "T17, KIT (V559D) (Homo sapiens, UniProt P10721, V559D)", "T17 construct": "purchased Eurofins DiscoverX KINOMEscan", "type": "binding", "description": "as §1"}, "ABL1 (F317L)-P": {"target": "T18, ABL1 (F317L)-P (Homo sapiens, UniProt P00519, F317L)", "T18 construct": "purchased Eurofins DiscoverX KINOMEscan", "T18 sequence (P00519 whole entry F317L)": "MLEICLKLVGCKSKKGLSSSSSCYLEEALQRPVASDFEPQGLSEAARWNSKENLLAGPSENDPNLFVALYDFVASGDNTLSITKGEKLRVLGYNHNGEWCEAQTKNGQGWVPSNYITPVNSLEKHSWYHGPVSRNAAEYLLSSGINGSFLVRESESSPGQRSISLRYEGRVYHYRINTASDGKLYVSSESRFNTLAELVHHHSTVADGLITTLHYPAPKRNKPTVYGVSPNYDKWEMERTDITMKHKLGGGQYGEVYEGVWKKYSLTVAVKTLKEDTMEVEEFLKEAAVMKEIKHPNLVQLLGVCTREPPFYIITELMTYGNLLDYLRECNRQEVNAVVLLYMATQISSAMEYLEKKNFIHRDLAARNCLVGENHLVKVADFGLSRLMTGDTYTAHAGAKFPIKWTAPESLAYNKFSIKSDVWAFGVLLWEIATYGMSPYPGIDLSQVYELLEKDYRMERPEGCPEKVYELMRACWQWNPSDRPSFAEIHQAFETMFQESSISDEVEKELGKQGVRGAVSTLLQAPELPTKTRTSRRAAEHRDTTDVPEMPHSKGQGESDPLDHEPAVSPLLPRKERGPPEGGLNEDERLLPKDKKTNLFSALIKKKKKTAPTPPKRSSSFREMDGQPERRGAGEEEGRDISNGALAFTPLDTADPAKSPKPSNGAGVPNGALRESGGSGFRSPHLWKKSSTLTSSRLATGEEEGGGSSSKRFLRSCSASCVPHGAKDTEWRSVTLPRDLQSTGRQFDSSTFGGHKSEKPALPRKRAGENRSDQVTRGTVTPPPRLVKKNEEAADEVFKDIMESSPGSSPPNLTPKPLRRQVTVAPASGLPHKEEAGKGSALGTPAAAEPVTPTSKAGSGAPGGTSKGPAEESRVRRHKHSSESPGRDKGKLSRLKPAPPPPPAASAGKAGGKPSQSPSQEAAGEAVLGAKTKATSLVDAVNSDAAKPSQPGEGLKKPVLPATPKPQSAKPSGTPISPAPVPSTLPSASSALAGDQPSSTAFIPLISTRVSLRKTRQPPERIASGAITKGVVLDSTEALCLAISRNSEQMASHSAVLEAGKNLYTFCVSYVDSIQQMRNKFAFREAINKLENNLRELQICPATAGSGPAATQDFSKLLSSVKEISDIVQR", "type": "binding", "description": "as §1"}, "FLT3 (ITD)": {"tested_on": "FLT3 (ITD)", "type": "binding, human", "details": "10 μM", "description": "as §1"}, "FLT3 (ITD, F691L)": {"tested_on": "FLT3 (ITD, F691L)", "type": "binding, human", "details": "10 μM", "description": "as §1"}, "FLT3 (ITD, D835V)": {"tested_on": "FLT3 (ITD, D835V)", "type": "binding, human", "details": "10 μM", "description": "as §1"}, "[1]": {"tested_on": "EGFR (L747-T751 del, Sins)", "type": "binding, human", "details": "10 μM", "description": "as §1"}},
  "data": [
    {"compound": "O=C1Nc2c(ccc3c2CCCC3)C1=NO", "note": "[Compound 5a, 3-(Hydroxyimino)-1,3,6,7,8,9-hexahydro-2H-benzo[g]indol-2-one]", "values": [
      {"measurement": "Kd", "setting": "HIPK1", "result": "1100 ± 70", "unit": "nM"},
      {"measurement": "Kd", "setting": "NEK10", "result": "3200 ± 1000", "unit": "nM"},
      {"measurement": "Kd", "setting": "DAPK1", "result": "13500 ± 700", "unit": "nM"},
      {"measurement": "Kd", "setting": "DYRK1A", "result": "850 ± 120", "unit": "nM"}
    ]},
    {"compound": "O=C1Nc2c(cc([N+](=O)[O-])c3c2CCCC3)C1=NO", "note": "[Compound 5d, 3-(Hydroxyimino)-5-nitro-1,3,6,7,8,9-hexahydro-2H-benzo[g]indol-2-one]", "values": [
      {"measurement": "inhibition at 10 µM", "setting": "PDGFRA", "result": 0, "unit": "%"},
      {"measurement": "inhibition at 10 µM", "setting": "FLT3", "result": 12, "unit": "%"},
      {"measurement": "inhibition at 10 µM", "setting": "QSK", "result": 14, "unit": "%"},
      {"measurement": "inhibition at 10 µM", "setting": "ERN1", "result": 29, "unit": "%"},
      {"measurement": "inhibition at 10 µM", "setting": "MEK3", "result": 94, "unit": "%"},
      {"measurement": "inhibition at 10 µM", "setting": "HIPK1; 10 μM", "result": 98.5, "unit": "%"},
      {"measurement": "Kd", "setting": "HIPK1", "result": "520 ± 113", "unit": "nM"},
      {"measurement": "inhibition at 10 µM", "setting": "NEK10; 10 μM", "result": 100, "unit": "%"},
      {"measurement": "Kd", "setting": "NEK10", "result": "660 ± 71", "unit": "nM"},
      {"measurement": "inhibition at 10 µM", "setting": "GAK", "result": 49, "unit": "%"},
      {"measurement": "inhibition at 10 µM", "setting": "SNRK", "result": 22, "unit": "%"},
      {"measurement": "inhibition at 10 µM", "setting": "RET", "result": 8, "unit": "%"},
      {"measurement": "inhibition at 10 µM", "setting": "DAPK1; 10 μM", "result": 96.3, "unit": "%"},
      {"measurement": "Kd", "setting": "DAPK1", "result": "290 ± 20", "unit": "nM"},
      {"measurement": "inhibition at 10 µM", "setting": "ABL1-non-P", "result": 54, "unit": "%"},
      {"measurement": "inhibition at 10 µM", "setting": "PIK3CA (C420R)", "result": 0, "unit": "%"},
      {"measurement": "inhibition at 10 µM", "setting": "GSK3B", "result": 29, "unit": "%"},
      {"measurement": "inhibition at 10 µM", "setting": "DYRK1A; 10 μM", "result": 98.8, "unit": "%"},
      {"measurement": "Kd", "setting": "DYRK1A", "result": "435 ± 78", "unit": "nM"},
      {"measurement": "inhibition at 10 µM", "setting": "IKK-β", "result": 50, "unit": "%"},
      {"measurement": "inhibition at 10 µM", "setting": "KIT (V559D)", "result": 0, "unit": "%"},
      {"measurement": "inhibition at 10 µM", "setting": "ABL1 (F317L)-P; first of two lines printed ABL1 (F317L)-P", "result": 23, "unit": "%"},
      {"measurement": "inhibition at 10 µM", "setting": "ABL1 (F317L)-P; second of two lines printed ABL1 (F317L)-P", "result": 20, "unit": "%"},
      {"measurement": "Inhib. (%)", "setting": "FLT3 (ITD)", "result": 29, "unit": "%"},
      {"measurement": "Inhib. (%)", "setting": "FLT3 (ITD, F691L)", "result": 66, "unit": "%"},
      {"measurement": "Inhib. (%)", "setting": "FLT3 (ITD, D835V)", "result": 65, "unit": "%"},
      {"measurement": "Inhib. (%)", "setting": "[1]", "result": 22, "unit": "%"}
    ]}
  ]
}
